Laboratory results: patent US20110166196A1, “TREATMENT AND PROPHYLAXIS OF EPILEPSY AND FEBRILE SEIZURES” (priority 2008, published 2011)

Key:
[1] = system: excitatory synapses onto CA1 hippocampal interneurons; assay: Drug-induced depression of EPSC amplitudes, whole-cell recording in hippocampal slices; assay type: cell-based, rat
Source text: (§1) The basic methods have been detailed previously (McMahon and Kauer, 1997). Sprague-Dawley rats (15-22 days old) were used in the majority of experiments. In addition, we used TRPV1^−/− mice (Caterina et al., 2000) and wild-type C57BL/6 mice aged between 15 and 21 days (Jackson Laboratory). The TRPV1^−/− mice we used have been backcrossed at least 10 times onto a C57BL/6 background and were obtained from homozygous breeding pairs. Control mice were therefore not littermates but were age-matched, wild-type C57BL/6 animals received from the same supplier in the same shipment. All animal protocols were approved by the Brown University Institutional Animal Care and Use Committee. For mouse experiments, only one brain slice per mouse was used for each experiment, so that reported ‘n’ numbers represent the number of animals. Animals were anaesthetized using halothane or isoflurane and quickly decapitated. The brain was rapidly removed and 300 μm thick coronal slices prepared and stored for at least one hour submerged on a net in artificial cerebrospinal fluid (ACSF) containing in mM: 119 NaCl, 26 NaHCO3, 2.5 KCl, 1.0 NaH2PO4, 2.5 CaCl2, 1.3 MgSO4 and 11 dextrose, saturated with 95% O2/5% CO2 (pH 7.4). Slices were then transferred to a submerged recording chamber and bathed in oxygenated ACSF (28-32° C.) containing elevated divalent cations to reduce epileptiform activity (4 mM CaCl2 and 4 mM MgCl2, replacing MgSO4). A surgical cut was made between the CA3 and CA1 regions. The storage of slices submerged on a net rather than in an interface chamber on filter paper may be important in maintaining slice health and improving the likelihood of observing LTD.
(§2) Slices were continuously perfused with ACSF warmed to 28-32° C. at a flow rate of 1-2 ml/min. Picrotoxin (100 μM) and D-AP5 (50 μM) were added to block GABAA receptor- and NMDAR-mediated synaptic transmission. Whole-cell patch clamp recordings were made from interneurons identified visually in the CA1 stratum radiatum of the hippocampus. […] Patch pipettes were filled with internal recording solution containing in mM: 117 cesium gluconate, 2.8 NaCl, 5 MgCl2, 20 HEPES, 2 ATP-Na^+, 0.3 GTP-Na^+ and 0.6 EGTA. In some experiments 2 μM capsazepine, 140 nM baicalein, or 250 μM GDPβS were also included in the intracellular patch pipette solution. In experiments with BAPTA-containing patch electrodes, EGTA was omitted from the intracellular solution and 25 or 40 mM BAPTA replaced a corresponding amount of cesium gluconate. EPSCs were stimulated at 0.1 Hz (100 μsec) using a bipolar stainless steel stimulating electrode placed in stratum radiatum at least 200 μm from the recorded cell. CA1 interneurons were voltage clamped at −65 mV (not corrected for the liquid junction potential, of ˜10 mV), and EPSCs were evoked by paired pulses with an interval of 50 msec (stimulus intensity typically 50-400 μA). In early experiments, we measured rectification ratios of EPSCs evoked at +40 mV/−60 mV in the presence of 50 μM D-AP5, measured at the time of peak inward synaptic current seen at −70 mV (Lei and McBain, 2004).
The maximal initial slope of fEPSPs was calculated using a LabVIEW-based program (National Instruments). The peak amplitude of each EPSC was measured by comparing a 10 msec time period immediately prior to the stimulus with the peak of the EPSC using this program as well. Occasionally polysynaptic responses were evoked, and in these cases, only the initial monosynaptic event was measured. To positively identify LTD, EPSCs measured every 10 seconds were averaged in 1 minute intervals. EPSC amplitude values were normalized to control pre-HFS EPSC amplitude values (baseline period of at least 5 minutes prior to HFS) and subjected to analysis of variance (ANOVA) repeated measures analysis with a post-hoc Dunnett's test (GraphPad Prism, Version 4).

TRPV1 receptors = molecular target: T1, TRPV1 receptors (Rattus norvegicus, UniProt O35433); assay: Capsaicin-evoked inward current (peak change in holding current) in hippocampal neurons; assay type: cell-based
T1 construct: inward currents were elicited in both CA3 and CA1 pyramidal cells; from tissue; host or cells: acute coronal hippocampal slices: CA1 and CA3 pyramidal cells and CA1 stratum radiatum interneurons
T1 sequence (O35433 whole entry): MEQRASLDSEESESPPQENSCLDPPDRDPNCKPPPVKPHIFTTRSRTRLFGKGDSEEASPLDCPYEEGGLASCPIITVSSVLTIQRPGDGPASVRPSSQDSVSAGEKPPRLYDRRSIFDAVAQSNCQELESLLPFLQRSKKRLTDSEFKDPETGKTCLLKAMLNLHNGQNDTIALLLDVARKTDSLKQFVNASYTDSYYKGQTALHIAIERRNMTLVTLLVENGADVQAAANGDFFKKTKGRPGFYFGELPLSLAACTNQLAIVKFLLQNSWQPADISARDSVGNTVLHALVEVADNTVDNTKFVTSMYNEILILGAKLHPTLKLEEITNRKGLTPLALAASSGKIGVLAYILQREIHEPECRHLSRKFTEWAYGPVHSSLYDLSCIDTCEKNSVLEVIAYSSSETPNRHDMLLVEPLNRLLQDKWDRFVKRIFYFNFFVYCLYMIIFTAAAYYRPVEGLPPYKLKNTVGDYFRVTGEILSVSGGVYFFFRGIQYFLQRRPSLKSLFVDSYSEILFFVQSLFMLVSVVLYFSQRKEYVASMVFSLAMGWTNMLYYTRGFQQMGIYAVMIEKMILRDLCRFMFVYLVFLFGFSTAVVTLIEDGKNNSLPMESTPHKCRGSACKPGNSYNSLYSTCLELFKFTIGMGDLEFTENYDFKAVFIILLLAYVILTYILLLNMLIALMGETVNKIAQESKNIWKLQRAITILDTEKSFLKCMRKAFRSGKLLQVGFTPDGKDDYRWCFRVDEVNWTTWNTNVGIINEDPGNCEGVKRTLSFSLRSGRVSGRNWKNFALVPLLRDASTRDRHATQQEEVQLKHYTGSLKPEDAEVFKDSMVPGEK
Experimental: as §2
The maximal initial slope of fEPSPs was calculated using a LabVIEW-based program (National Instruments). The peak amplitude of each EPSC was measured by comparing a 10 msec time period immediately prior to the stimulus with the peak of the EPSC using this program as well. Occasionally polysynaptic responses were evoked, and in these cases, only the initial monosynaptic event was measured. To positively identify LTD, EPSCs measured every 10 seconds were averaged in 1 minute intervals. EPSC amplitude values were normalized to control pre-HFS EPSC amplitude values (baseline period of at least 5 minutes prior to HFS) and subjected to analysis of variance (ANOVA) repeated measures analysis with a post-hoc Dunnett's test (GraphPad Prism, Version 4). […] EPSC amplitude values 15 to 20 minutes post-HFS were compared between control LTD experiments and those carried out either in transgenic TRPV1^−/− mice, or in the presence of drug using a t-test (unpaired, two-tailed, with Welch's correction if the variances between the groups were unequal). To calculate the effects of capsaicin, 12-(S)-HPETE or WIN 55,212-2 application on basal excitatory glutamatergic transmission, normalized EPSC amplitudes or fEPSP slopes were averaged in the final 5 minutes of drug application and compared with EPSCs/EPSPs 5 minutes prior to drug application. […] The n-values reported refer to the number of slices. All combined data are expressed as mean±the standard error of the mean (s.e.m.).

[2] = system: excitatory synapses onto CA1 hippocampal interneurons; assay: HFS-induced long-term depression (LTD) of EPSCs, whole-cell recording in hippocampal slices; assay type: cell-based, rat
Source text: as §1, §2
High-frequency stimulation was used to induce LTD (HFS; two 1 sec trains at 100 Hz, inter-train interval 20 sec, at 1.5 times test current intensity) with the neuron held in current-clamp mode, so that the HFS trains were delivered with the membrane potential free to vary. Receptor antagonists were added directly to the ACSF at known concentrations for at least 10 minutes prior to HFS. Control experiments were interleaved with those experiments using receptor antagonists or involving slices from TRPVl^−/− mice. The cell input resistance and series resistance were monitored throughout each experiment; cells were discarded if these values changed by more than 10% during the experiment.

[3] = system: excitatory synapses onto CA1 hippocampal interneurons; assay: Synaptic failure analysis using minimal stimulation; assay type: cell-based, rat; conditions: capsaicin 1 μM; pre-capsaicin 38.4±3.5%; n=5
Experimental: as §2, with “CA1 interneurons were voltage clamped at −65 mV (not corrected for the liquid junction potential, of ˜10 mV), and EPSCs were evoked by paired pulses with an interval of 50 msec (stimulus intensity typically 50-400 μA).” left out

TRPV1 channels = molecular target: T2, TRPV1 channels (Mus musculus, UniProt Q704Y3); assay: TRPV1 agonist-evoked inward current and depolarization in CA1 pyramidal neurons; assay type: cell-based
T2 construct: whole-cell recordings from acutely prepared brain slices from wild type C57BL/6 mice; from tissue; host or cells: acute coronal hippocampal slices from P14-P20 wild-type C57BL/6 mice: CA1 pyramidal neurons
T2 sequence (Q704Y3 whole entry): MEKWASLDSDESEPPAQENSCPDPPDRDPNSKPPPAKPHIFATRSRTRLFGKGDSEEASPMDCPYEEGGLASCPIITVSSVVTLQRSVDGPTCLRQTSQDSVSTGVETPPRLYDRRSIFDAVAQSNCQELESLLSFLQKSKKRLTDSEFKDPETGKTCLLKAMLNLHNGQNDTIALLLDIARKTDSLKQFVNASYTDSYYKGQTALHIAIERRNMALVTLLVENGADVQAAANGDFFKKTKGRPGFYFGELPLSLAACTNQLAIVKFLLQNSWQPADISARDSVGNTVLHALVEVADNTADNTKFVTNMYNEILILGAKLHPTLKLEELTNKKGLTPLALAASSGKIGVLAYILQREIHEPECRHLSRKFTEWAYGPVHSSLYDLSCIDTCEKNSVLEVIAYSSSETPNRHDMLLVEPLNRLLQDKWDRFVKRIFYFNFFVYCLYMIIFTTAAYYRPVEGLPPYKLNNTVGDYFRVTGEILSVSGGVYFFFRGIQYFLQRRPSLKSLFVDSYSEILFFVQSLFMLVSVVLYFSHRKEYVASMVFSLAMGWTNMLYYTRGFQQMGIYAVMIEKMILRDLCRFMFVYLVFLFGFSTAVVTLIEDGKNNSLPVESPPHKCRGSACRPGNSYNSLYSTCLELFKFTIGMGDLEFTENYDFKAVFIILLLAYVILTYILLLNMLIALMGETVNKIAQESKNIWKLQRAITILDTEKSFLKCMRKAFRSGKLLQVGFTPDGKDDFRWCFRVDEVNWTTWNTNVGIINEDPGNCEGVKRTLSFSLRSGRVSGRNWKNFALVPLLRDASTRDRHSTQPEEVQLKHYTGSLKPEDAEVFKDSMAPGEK

[4] = capsaicin 3 μM, capsazepine 10 μM, n=5

Structure (SMILES) | EPSC amplitudes after 10-15 minutes in capsaicin ([1]; capsaicin 1 μM bath-applied, n=14) | 1 μM capsaicin response in interneurons (TRPV1 receptors; 1 μM capsaicin, P=0.78 vs pre-drug, n=5) | peak capsaicin response in CA3 pyramidal cells (inward current) (TRPV1 receptors; 3 μM capsaicin bath application, n=5) | peak capsaicin response in CA1 pyramidal cells (inward current) (TRPV1 receptors; 3 μM capsaicin bath application, n=7) | peak capsaicin response in interneurons (inward current) (TRPV1 receptors; 3 μM capsaicin, CA1 stratum radiatum interneurons, n=5) | EPSC amplitudes 15-20 minutes post-HFS ([2]; HFS after capsaicin 1 μM exposure (occlusion), n=10) | average synaptic failures in capsaicin [3] | capsaicin-evoked current in a CA1 neuron (TRPV1 channels; capsaicin 3 μM bath-applied) | effect on membrane potential of CA1 pyramidal neurons (TRPV1 channels; capsaicin 3 μM bath-applied, current-clamp) | EPSC amplitudes after 10-15 minutes in 1 μM capsaicin and in the presence of intracellular capsazepine ([1]; capsazepine 2 μM in patch pipette, capsaicin 1 μM bath, n=6) | EPSC amplitudes after 10-15 minutes in 12-(S)-HPETE and in the presence of capsazepine ([1]; capsazepine 10 μM, 12-(S)-HPETE 100 nM, n=6) | Peak capsaicin response in the presence of capsazepine in CA1 interneurons (TRPV1 receptors; capsaicin 3 μM, capsazepine 10 μM, P=0.06, n=5) | Peak capsaicin response in the presence of capsazepine in CA1 pyramidal cells (TRPV1 receptors; [4]) | Peak capsaicin response in the presence of capsazepine in CA3 pyramidal cells (TRPV1 receptors; [4]) | EPSC amplitudes 10-15 minutes after adding capsazepine ([2]; 10 μM capsazepine added 10 minutes after HFS (LTD maintenance), n=6) | EPSC amplitudes 15-20 minutes post-HFS with intracellular capsazepine ([2]; capsazepine 2 μM in patch pipette, P=0.20 vs control LTD, n=7) | EPSC amplitudes 15-20 minutes post-HFS in capsazepine ([2]; capsazepine 10 μM bath applied prior to HFS, n=9) | effect on capsaicin-induced depolarization of CA1 pyramidal neurons (TRPV1 channels; 2 μM intracellular capsazepine, capsaicin 3 μM, p<0.001) | capsaicin-evoked current in the presence of capsazepine (TRPV1 channels; capsaicin 3 μM plus capsazepine 10 μM) | effect on 12-(S)-HPETE-evoked inward current (TRPV1 channels; capsazepine 10 μM, 12-(S)-HPETE 100 nM)
COc1cc(CNC(=O)CCCCC=CC(C)C)ccc1O [capsaicin, 8-methyl-N-vanillyl-6-nonenamide] | 73.3±4.6 % of pre-drug control values | 0.7±0.3 pA | 180.1±48.0 pA | 160.1±55.3 pA | 41.6±16.2 pA | 112.5±21.9 % of control values in capsaicin before HFS | 73.5±7.8% | induces inward current | significantly depolarized |  |  |  |  |  |  |  |  |  |  | 
Oc1cc2c(cc1O)CN(C(=S)NCCc1ccc(Cl)cc1)CCC2 [capsazepine] |  |  |  |  |  |  |  |  |  | 46.8±10.3 % of pre-capsaicin control values | 103.0±8.9 % of pre-12-(S)-HPETE control values | 0.4±0.2 pA | 0.1±0.1 pA | 0.1±0.1 pA | 50.1±6.1 % of pre-HFS values | 47.5±10.3 % of control values before HFS | 105.6±8.6 % of control values before HFS | prevented | does not induce current | blocked
